According to patent publication US20170281799A1, “SYSTEMS AND METHODS FOR SCREENING OTOTOXIC, OTOPROTECTIVE, AND OTOREGENERATIVE COMPOUNDS USING AQUATIC MODELS” (ARIZONA BOARD OF REGENTS ON BEHALF OF THE UNIVERSITY OF …, priority 2014, published 2017):
Entries after “also recorded” stand apart in the source; their conditions may differ.

Columns and labels:
zebrafish [1] = assay: Rheotaxis behavior with next generation video imaging and semi-automated image analysis; format: in vivo, Danio rerio
Text: Sulforaphane, a naturally occurring molecule within the isothiocyanate group of organosulfur compounds, is present within cruciferous vegetables such as broccoli. Low doses of SF induce production of antioxidant enzymes such as glutathione transferases, UDP-glucuronyltransferase, NAD(P)H:quinone oxidoreductase I and heme oxygenase-1 (HO-1) via NRF2 mediated activation of ARE promoters upstream from their genes—thereby allowing a diverse array of electrophilic and oxidative toxicants to be eliminated in a coordinated manner. Four-and-half dpf larvae were incubated in sulforaphane at a concentration of 10 μM for 12 hours and subsequently incubated for 4 hours in 1000 μM cisplatin (SF10/Cis 1000). An SF-alone (SF10/Cis 0) group and DMSO vehicle controls (DMSO/Cis 1000; DMSO/Cis 0) were also tested. To assess the otoprotective effects of SF on hair cell anatomy, aggregate neuromast damages were determined for each treatment group.

zebrafish [2] = assay: Behavioral assay: rheotaxis in swimming test apparatus; format: in vivo, Danio rerio
Text: The custom-built behavioral apparatus consists of 6 experimental lanes with laminar flow velocity controlled at 0.15 cm/sec, allowing the simultaneous testing of up to 6 differing experimental conditions. Each lane measures 10.2 cm in height×9.9 cm in width×25.4 cm in length. Lanes are partitioned with metal mesh dividers to contain fish in one central area, measuring 5.0 cm length×9.9 cm width, allowing for image capture (FIG. 3). E2 medium flows from a header tank through the experimental lanes to a media reserve tank and is then recycled via pump back to the header tank. The pump is used to overdrive a header standpipe, resulting in constant pressure that is split evenly between the lanes, controlling the flow. A heater located in the reserve media tank maintains temperature at 28±0.5° C. Total system volume capacity (experimental apparatus+header and reserve tanks) is approximately 210 L, while operating volume is 152 L. The flow is calibrated as follows: lane width (9.9 cm)×total number of lanes (6)×operational water height (5.8 cm)×desired flow (0.15 cm/sec)=flow rate of 51.7 cubic centimeters/seconds. Water traveling from experimental lanes to the reserve media tank is received in a 1000 mL beaker and the rate of water flow is adjusted until it takes 19.3 seconds to fill the beaker to 1000 mL. Flow speed is calibrated before every experiment. With the system calibrated, flow may then be turned on or off via a separate valve, without any further adjustments.
The experimental system is housed in a cabinet creating a condition free of ambient light, thus negating any influence of visual input on zebrafish swimming behavior. Infrared light provides lighting from which images were acquired. Video capture is accomplished with under-mounted Samsung SCB-200 high-resolution video cameras (FIG. 3). In conducting the assay, five-day post fertilization (5 dpf) zebrafish are treated with several different experimental conditions (see below for detailed methods), rinsed three times in embryo medium, transferred to the experimental lanes, and the cabinet is then closed for 30 minutes to allow for dark adaptation. Image acquisition begins with 2 minutes of filming under no-flow conditions, next the water flow is turned on and the fish are allowed 1 minute to acclimate to the flow and then 2 minutes of flow behavior is recorded (FIG. 4).
Rheotaxis was defined as fish oriented headfirst, with an axial alignment within 30 degrees on either side of the directional flow vector and attempting to swim into the current. […] From the still images, the angle of every fish was measured using ImageJ and placed into an Excel spreadsheet for data processing (FIG. 6). […] Therefore, there were no negative values or angles measured between 181-360 degrees. […]

lateral line hair cells = assay: Anatomical assay: YO-PRO1 staining, aggregate neuromast damage score; details: for Anatomical Assay Damage Score (Mean ± S.D.): score 0-21 per fish
Method: Following the drug exposure (see below for detailed methods), larvae were fluorescently stained/labeled in embryo medium containing 6 μM YO-PRO1 (Invitrogen; Y3603) for 20 min. YO-PRO1 is a common vital dye used for staining viable lateral line hair cells in zebrafish (Coffin A B, et al., Zebrafish. 2010 March; 7(1):3-11; Ou H C, et al., Drug Discov Today. 2010 April; 15(7-8):265-71; Ou H C, et al., Hear Res. 2007 November; 233(1-2):46-53; Santos F, et al., Hear Res. 2006 March; 213(1-2):25-33). Concentration and duration were optimized for this purpose. After labeling, the larvae were rinsed three times in embryo media and then anesthetized using 0.5 mM of MS-222 (Tricaine Methanesulfonate, Western Chemical Inc.) (Buck L M, et al., Hear Res. 2012 February; 284(1-2):67-81). The larvae were fixed in 2% paraformaldehyde for 1 hour at room temperature and stored in PBS overnight at 4° C. Fixed larvae were then mounted in 6% methylcellulose (Sigma; M7140) in 0.2 mm silicone chambers and covered with No. 1.5 cover glass (Warner Instruments; 64-0718) for confocal microscopy. Larvae were observed under a confocal microscope (Leica SP5) using 20× dry and 40× oil immersion lenses.
Treatment groups consisted of 3-7 fish. Seven ventral neuromasts of the posterior lateral line (P3, P4, P5, P6, P7, P8, and P9) were selected for determination of the “neuromast damage score” per fish (FIG. 1). Each neuromast was scored from 0 to 3. A score of 0 represents no damage with normal staining; 1 represents mild damage with moderate staining; 2 represents severe damage with poor staining; 3 represents total hair cell/neuromast destruction with no staining (FIG. 2). Seven scores per fish were then added to generate the total “aggregate neuromast damage score.” The lowest possible score for an individual fish is 0, representing no damage, with the highest possible score for a fish being 21, representing complete damage. Separate individuals (scorer A, B and C) were trained in the counting technique and “neuromast damage scores” were generated independently with blinding of experimental conditions to insure unbiased assessment. The mean score of the three evaluators was used to determine the final “neuromast damage score.” Inter-scorer variation was validated by using the Pearson's correlation coefficient.
In order to establish the sensitivity of the newly developed behavior assay for detecting damage caused by varying doses of cisplatin, a cisplatin dose-dependent exposure experiment was prepared. Cisplatin solutions were prepared from powder (Sigma; P4394) in embryo medium. Five dpf larvae were incubated in cisplatin at concentrations of 0, 250, 500, 750, or 1000 μM (Cis 0, Cis 250, Cis 500, Cis 750, and Cis 1000, respectively) for 4 hours at room temperature or 28±0.5° C. then rinsed 3 times in embryo media.
In order to assess the effect of dexamethasone on cisplatin-induced ototoxicity using the behavior/anatomical assay technique, dexamethasone pre-exposure groups were prepared. Dexamethasone (Sigma; D4902) stock solution (25 mg/ml) was prepared with DMSO (Dimethyl Sulphoxide, Sigma; D2650) and diluted with embryo medium. Four-and-half dpf larvae were incubated in dexamethasone at a concentration of 5 μM for 12 hours at 28.5±0.5° C. and subsequently rinsed in embryo media. Four-and-half dpf fish were used to allow for a half-day of maturation to ensure all fish would be 5 dpf at time of behavioral/anatomical testing. […]

[3] = dexamethasone 5 μM 12 hours alone, no cisplatin
[4] = dexamethasone 5 μM pre-exposure 12 hours, then cisplatin 1000 μM 4 hours

N.N.[Cl][Pt][Cl] [Cis, cisplatin]
rheotaxis index (zebrafish [1]; cisplatin 1000 μM, new image analysis techniques, controls >85%): 45%
rheotaxis performance versus cisplatin dosage (in words) (zebrafish [2]; in vivo): clear linear correlation was found between increasing cisplatin dosage and decreased rheotaxis performance

C[C@@H]1C[C@H]2[C@@H]3CCC4=CC(=O)C=C[C@]4(C)[C@@]3(F)[C@@H](O)C[C@]2(C)[C@@]1(O)C(=O)CO [Dex, dexamethasone]
hair cell damage caused by dexamethasone alone (in words) (lateral line hair cells; Dex 5/Cis 0): no hair cell damage; also recorded: no statistically significant difference between Cis 0 and Dex 5/Cis 0
Anatomical Assay Damage Score (Mean ± S.D.) (lateral line hair cells; [3]): 2.40 ± 0.64
Anatomical Assay Damage Score (Mean ± S.D.) (lateral line hair cells; [4]): 5.20 ± 1.53
damage by dexamethasone-alone treatment, rheotaxis (in words) (zebrafish [2]; Dex 5/Cis 0): No damage was induced
Behavioral Assay Rheotaxia Index (%) (Mean ± S.D.) (zebrafish [2]; [3]): 35.6 ± 12.5%
Behavioral Assay Rheotaxia Index (%) (Mean ± S.D.) (zebrafish [2]; [4]): 25.5 ± 5.2%

C[S+]([O-])CCCCN=C=S (centres unmarked) [sulforaphane]
effect of pre-exposure on rheotaxis after cisplatin (in words) (zebrafish [1]; SF10/Cis 1000): dramatically improved the ability of fish to perform rheotaxis
hair cell damage caused by sulforaphane alone (in words) (lateral line hair cells; SF10/Cis 0: 10 μM, 12 hours): caused no hair cell damage
rescue of hair cell architecture against cisplatin (in words) (lateral line hair cells; SF10/Cis 1000: 10 μM 12 hours, then 1000 μM cisplatin 4 hours): partial rescue of hair cell architecture
